Earlier results as cited in patent US8496960B2 (Purdue Pharma L.P., priority 2001, dated 2013).

Assays:
[1] = following oral administration

first-pass effect (following oral administration): minimal
effect of food on bioavailability (oral, with food): no significant effect
Compound: COc1cc2nc(N3CCN(C(=O)C4CCCO4)CC3)nc(N)c2cc1OC (stereo not drawn) [terazosin]
time to antihypertensive effects [1]: ≤ 15 min
